# Measurements taken from US20230263822A1, “MODULATION OF FACTOR 11 EXPRESSION” (Ionis Pharmaceuticals, Inc., priority 2008, published 2023).
# What was measured:
# Type in all cases: in vivo
# [1] = tested on: murine Factor 11 protein; assay: Factor 11 protein, F11 assay based on clotting time (Example 10); settings: BALB/c mice; for % Inhibition of murine Factor 11 protein: plasma, relative to PBS control
# Experimental: (§1) BALB/c mice were injected with 5 mg/kg, 10 mg/kg, 25 mg/kg, or 50 mg/kg of ISIS 404057 or ISIS 404071 twice a week for 3 weeks. A control group of mice was injected with phosphate buffered saline (PBS) twice a week for 3 weeks. Mice were sacrificed 5 days after receiving the last dose. Whole liver was harvested for RNA analysis and plasma was collected for clotting analysis (PT and aPTT) and protein analysis.
# Factor 11 proenzyme from the plasma of mice treated with ISIS 404071, was measured using a F11 assay based on clotting time. Clotting times were determined in duplicate with a ST4 semi-automated coagulation instrument (Diagnostica Stago, NJ). Thirty μl of citrated sample plasma diluted 1/20 in HEPES-NaCl buffer with BSA was incubated with 30 μl aPTT reagent (Platelet Factor 3 reagent plus particulate activator) and 30 μl of citrated plasma deficient of Factor 11 (human congential, George King Bio-Medical Inc.) at 37° C. to initiate clotting. Results were interpolated on a standard curve of serially diluted citrated control murine plasma.
# Results are presented as percent inhibition of Factor 11, relative to PBS control.
# [2] = tested on: mesenteric vein thrombosis; assay: Mesenteric vein thrombosis, intravital microscopy (Example 22); settings: C57BL/6 mice, 50 mg/kg s.c. twice a week for three weeks
# Experimental: In a first cohort, ISIS 404071 was administered subcutaneously to C57BL/6 mice twice a week for three weeks at a dose of 50 mg/kg. In a second cohort, a control oligonucleotide, ISIS 405277 ([…]; antisense oligonucleotide for Factor 2), incorporated herein as SEQ ID NO: 12 was administered subcutaneously to C57Bl/6 mice twice a week for three weeks at a dose of 50 mg/kg.
# Blood was collected from the retro-orbital venous plexus of naïve C57BL/6 mice by puncture and collected in polypropylene tubes containing 300 μl of heparin (30 U/ml). Platelet rich plasma (PRP) was obtained by centrifugation at 1000 rpm for 5 min. The PRP was transferred to fresh tubes containing 2 μl of Prostaglandin I2 (PGI2) (2 μg/ml) and incubated at 37° C. for 5 min. After centrifugation at 2600 rpm, pellets were resuspended in 1 ml modified Tyrode's-HEPES buffer (137 mM NaCl, 0.3 mM Na2HPO4, 2 mM KCl, 12 mM NaHCO3, 5 mM HEPES, 5 mM glucose, 0.35% BSA, pH 7.2) containing 2 μl of PGI2 and incubated at 37° C. for 5 min. The suspended pellet was centrifuged at 2600 rpm for 5 min. To remove PGI2, the washing step was repeated twice and platelets were fluorescently labeled with calcein AM 2.5 μg/mL (Molecular Probes, Eugene, Oreg.) for 10 min at room temperature.
# Fluorescently-labeled platelets were injected intravenously in ISIS 404071 treated and control oligonucleotide treated C57BL/6 mice. […] The exposed mesentery was kept moist throughout the experiment by periodic superfusion with warmed (37° C.) PBS. The mesentery was transluminated with a 12V, 100 W, DC stabilized source. Veins were visualized using a Zeiss (Germany) Axiovert 135 inverted microscope (Objective 32X) connected to an SVHS video recorder (AG-6730; Panasonic, Tokyo, Japan) using a CCD video camera (Hamamatsu Photonic Systems, Hamamatsu City, Japan). Centerline erythrocyte velocity (Vrbc) was measured using an optical Doppler velocimeter (Microcirculation Research Institute, Texas A&M College of Medicine, College Station, Tex.). Venular shear rate (τ) was calculated based on Poiseuille's Law for a newtonian fluid, τ=8(Vmean/Dv), where Dv is the diameter of the venule and Vmean is estimated from the measured Vrbc using the empirical correlation Vmean=Vrbc/1.6.
# Mesenteric vein thrombosis was performed two days after the last antisense oligonucleotide injection. Thrombosis was induced by applying Whatman paper soaked in a 10% FeCl3 solution for 5 minutes on the mesenteric vein. The vein was monitored for 40 minutes, or until occlusion. The elapsed time before the first thrombus 30-50 μm in diameter and the elapsed time before blood stopped flowing for 30 seconds were observed.
# [3] = tested on: blood coagulation; assay: PT and aPTT assay in platelet poor plasma (Example 10); settings: BALB/c mice
# Experimental: as §1
# Prothrombin Time (PT) and Activated Partial Thromboplastin Time (aPTT) were measured using platelet poor plasma (PPP) from mice treated with ISIS 404057 and ISIS 404071. PT and aPTT values provided in Table 18 are reported as International Normalized Ratio (INR) values. INR values for PT and aPTT were determined by dividing the PT or aPTT value for each experimental group (i.e. 5 mg/kg, 10 mg/kg, 25 mg/kg, and 50 mg/kg treatment with ISIS 404057 or ISIS 404071) by the PT or aPTT for the PBS treated group. This ratio was then raised to the power of the International Sensitivity Index (ISI) of the tissue factor used.
# [4] = 5 mg/kg twice a week for 3 weeks
# [5] = 10 mg/kg twice a week for 3 weeks
# [6] = 25 mg/kg twice a week for 3 weeks
# [7] = 50 mg/kg twice a week for 3 weeks
# [8] = 5-50 mg/kg twice a week for 3 weeks
substance,measurement,setting,value
"ISIS 404071: antisense oligonucleotide targeted to murine Factor 11 mRNA, TGGTAATCCACTTTCAGAGG, target start site 869 (chemistry not given here)",Factor 11 protein,[1]; 5-50 mg/kg,significant dose-dependent reduction of Factor 11 protein
same,% Inhibition of murine Factor 11 protein,[1]; 5 mg/kg,39%
same,% Inhibition of murine Factor 11 protein,[1]; 10 mg/kg,67%
same,% Inhibition of murine Factor 11 protein,[1]; 25 mg/kg,89%
same,% Inhibition of murine Factor 11 protein,[1]; 50 mg/kg,96%
same,occlusion of veins within 40 minutes after injury,[2],did not occlude
same,time of occlusion (occlusive thrombi),[2]; 10% FeCl3 on mesenteric vein,29.5 min
same,time of thrombus formation (30 μm in diameter),[2]; 10% FeCl3 on mesenteric vein,14.8 ± 1.7 min
same,PT INR,[3]; [4],1.06
same,aPTT INR,[3]; [4],1.09
same,PT INR,[3]; [5],1.08
same,aPTT INR,[3]; [5],1.13
same,PT INR,[3]; [6],1.06
same,aPTT INR,[3]; [6],1.35
same,PT INR,[3]; [7],1.02
same,aPTT INR,[3]; [7],2.08
same,PT,[3]; [8],not significantly prolonged
same,aPTT,[3]; [8],prolonged in a dose-dependent manner
